Source: article PMC9036627, “Global update on the susceptibility of human influenza viruses to neuraminidase inhibitors, 2013–2014” (Antiviral research, 2015)

Assays:
[1] = test system: neuraminidase (NA) of B/Yamagata-lineage viruses; format: biochemical, influenza B/Yamagata-lineage virus
[2] = test system: neuraminidase (NA) of B/Victoria-lineage viruses; format: biochemical, influenza B/Victoria-lineage virus
[3] = test system: neuraminidase (NA) of A(H1N1)pdm09 viruses; format: biochemical, influenza A(H1N1)pdm09 virus
[4] = test system: former seasonal A(H1N1) H275Y virus; details: ref Kawai et al., 2009, Dharan et al., 2010, Matsuzaki et al., Saito et al.; cited from earlier work
[5] = test system: former seasonal A(H1N1) H275Y virus; details: ref Kawai et al., 2009, Dharan et al., 2010, Matsuzaki et al., Saito et al.; cited from earlier work; remark: listed apart in the source

Structure (SMILES)	effect of NA substitution on susceptibility [1]	inhibition category (HRI/RI/NI) [2]	Included in phenotypic analysis: inhibition category (HRI/RI/NI) [3]	effect of NA substitution on susceptibility [3]	inhibition category (HRI/RI/NI) [1]	clinical resistance [4]	inhibition category in vitro [5]
[H]/N=C(\N)N[C@H]1C=C(C(=O)O)O[C@@H]([C@H](OC)[C@H](O)CO)[C@@H]1NC(C)=O [Laninamivir, laninamivir]	no effect	HRI (key: NI < 5-fold; RI 5 to 50-fold; HRI > 50-fold)	RI (key: NI < 10-fold; RI 10 to 100-fold; HRI > 100-fold)	little or no effect			
CCOC(=O)C1=C[C@@H](OC(CC)CC)[C@H](NC(C)=O)[C@@H](N)C1 [Oseltamivir, oseltamivir]		RI (key: NI < 5-fold; RI 5 to 50-fold; HRI > 50-fold)			RI (key: NI < 5-fold; RI 5 to 50-fold; HRI > 50-fold)	clinically resistant	HRI (HRI > 100-fold)
CCC(CC)[C@H](NC(C)=O)[C@@H]1[C@H](O)[C@@H](C(=O)O)C[C@H]1N=C(N)N [Peramivir, peramivir]		HRI (key: NI < 5-fold; RI 5 to 50-fold; HRI > 50-fold)					HRI (HRI > 100-fold)
CC(=O)N[C@H]1[C@H]([C@H](O)[C@H](O)CO)OC(C(=O)O)=C[C@@H]1N=C(N)N [Zanamivir, zanamivir]	no effect	HRI (key: NI < 5-fold; RI 5 to 50-fold; HRI > 50-fold)		little or no effect			
